Measurements from patent publication US5948635A, “Totally Synthetic Affinity Reagents” (University of North Carolina at Chapel Hill, priority 1995, dated 1999).

Columns and labels:
[1] = biological target: calmodulin (Homo sapiens, UniProt P0DP23); assay: Competition with SEQ ID NO 176 peptide binding to calmodulin; conditions: FIG. 20, FIG. 23
Excerpt: To examine where the SEQ ID NO 176 peptide bound the CaM molecule, we attempted to block binding with other peptides that have been previously shown to bind to the central, linker region of CaM (See Persechini and Kretsinger, 1988, J. Cardiovasc. Pharmacol 12:S1-12; Ikura et al., 1992, Cell Calcium 13:391-400; Chapman et al., 1992, Biochemistry 31:12819-25; Meador et al., 1992, Science 257: 1251-1255). It is this region of CaM that binds various proteins to regulate their activity in a Ca^2+ -dependent manner.
If the site responsible for binding of the CaM specific TSARs to CaM were only a five or six residue peptide, then one would have expected to isolate about 10-20 CaM binding TSARs from the TSAR-12 library. However, since only one particular CaM binding TSAR was repeatedly isolated, it appears that the site of interaction between the CaM specific TSAR and CaM is complex, i.e., the site requires more than simply 5 or 6 residues. To illustrate regions of the SEQ ID NO 176 that are involved in binding to CaM, the ability of 4 modified peptides to compete with SEQ ID NO 176 binding for calmodulin were examined. The modified peptides were (a) the N-terminal 13 residues […] SEQ ID NO 185; (b) the C-terminal 13 residues […] SEQ ID NO 186; (c) the SEQ ID NO 176 peptide where, at position 4, W was changed to A--[…] SEQ ID NO. 184; and (d) a peptide having the reverse sequence […] SEQ ID NO. […]

[2] = test system: calcineurin; assay: CaM-12.1 phage binding to calcineurin
Protocol: (§1) The binding properties of the CaM-12.1 TSAR were further examined in several ways. First, the ability of CaM-12.1 phage to bind other calcium-binding proteins was tested. […] Second, the ability of natural calmodulin binding peptides and proteins to compete for binding of the CaM-12.1 phage with CaM was tested. […] Third, the ability of a synthetic non-peptide CaM-antagonist, W7, (#681629; Calbiochem, San Diego, Calif.), was tested for its ability to compete for binding of CaM-12.1 to CaM. […] In summary: (1) CaM-12.1 binds CaM specifically, and not because it is a high-affinity Ca^2 +-binding protein; (2) CaM-12.1 binds CaM at a site partially overlapping or influenced, by the binding sites of CaM-dependentprotein kinase peptide, melittin and W7.

[3] = test system: parvalbumin; assay: CaM-12.1 phage binding to wells coated with parvalbumin; conditions: ELISA plate wells
Protocol: as §1

[4] = test system: vitamin D calcium-binding protein; assay: CaM-12.1 phage binding to wells coated with vitamin D calcium-binding protein; conditions: ELISA plate wells
Protocol: as §1

| binding to calcineurin [2] | binding to parvalbumin [3] | binding to vitamin D calcium-binding protein [4] | Substance | competition with binding of peptide SEQ ID NO 176 to CaM [1] |
| --- | --- | --- | --- | --- |
|  |  |  | GAARAQTRLASWK [SEQ ID NO 186, C-terminal 13 residues] | none of the four peptides were able to compete |
|  |  |  | STVPRAIEDSLRGGAARAQTRLASWK [SEQ ID NO. 184] | none of the four peptides were able to compete |
| did not bind | failed to bind | failed to bind | VPRWIEDSLRGGAARAQTRLASA [CaM-12.1] |  |
